Test results as given in ChEMBL document CHEMBL1136432, “Discovery of potent imidazole and cyanophenyl containing farnesyltransferase inhibitors with improved oral bioavailability” (Bioorg Med Chem Lett, 2003).

Experiments:
[1] = biological target: T1, Protein farnesyltransferase (Bos taurus, UniProt P29702+P49355); experiment: Inhibition of transfer of [3H]FPP to biotin K-ras peptide (KKSKTKCVIM) catalyzed by bovine FTase; format: protein-complex assay
NIH3T3 = experiment: Concentration needed to reduce 50% of farnesylation in NIH3T3 H-ras cell line; format: functional, cell-based; settings: Mus musculus
[2] = Half life in dog at the single oral dose of 1 mg/kg; format: ADME, organism-based, Canis lupus familiaris; set-up: dose 1 mg/kg, route oral; settings: in vivo
[3] = Pharmacokinetic (PK) property (AUC) was determined in dog at the single oral dose of 1 mg/kg; format: ADME, organism-based, Canis lupus familiaris; set-up: dose 1 mg/kg, route oral; settings: in vivo
[4] = Pharmacokinetic (PK) property (Tmax) was determined in dog at the single dose of 1 mg/kg; format: ADME, organism-based, Canis lupus familiaris; set-up: dose 1 mg/kg; settings: in vivo
[5] = Pharmacokinetic (PK) property (Cmax) was determined in dog at the single dose of 1 mg/kg; format: ADME, organism-based, Canis lupus familiaris; set-up: dose 1 mg/kg; settings: in vivo
[6] = biological target: T1, Protein farnesyltransferase; experiment: Inhibition of [3H]FPP transfer to biotin K-ras peptide (KKSKTKCVIM) by bovine FTase; format: protein-complex assay
[7] = biological target: Geranylgeranyl transferase type I (Bos taurus, UniProt P29702+Q5EAD5); experiment: Inhibition of [3H]FPP transfer to biotin K-ras peptide (KKSKTKCVLL) catalyzed by bovine GGTase-I
[8] = Oral bioavailability in monkey; settings: cercopithecidae, in vivo
in vivo = settings: dog, po, 5 mg/kg
Description: Oral bioavailability in dog (dose 5 mg/kg)

Cn1cncc1C(OCc1ccc(C#N)cc1-c1cc(Cl)cc(Cl)c1)c1ccc(C#N)nc1 (stereo unspecified)
IC50 [1]: 0.64 nM
EC50 (NIH3T3): 3.5 nM

Cn1cncc1C(OCc1ccc(C#N)c(-c2ccc3ccccc3c2)n1)c1ccc(C#N)cc1 (stereo unspecified)
IC50 [1]: 8.2 nM

COc1cccc(-c2cc(C#N)ccc2COC(c2ccc(C#N)cc2)c2cncn2C)c1 (stereo unspecified)
IC50 [1]: 0.62 nM
EC50 (NIH3T3): 1.2 nM

Cn1cncc1C(OCc1ccc(C#N)cn1)c1ccc(C#N)c(-c2cccc3ccccc23)c1 (stereo unspecified)
IC50 [1]: 0.43 nM
EC50 (NIH3T3): 6 nM

Cn1cncc1C(OCc1ccc(C#N)c(-c2cccc(C#N)c2)n1)c1ccc(C#N)cc1 (stereo unspecified)
IC50 [1]: 68 nM

Cn1cncc1C(OCc1ccc(C#N)nc1N1CCN(C(=O)OC(C)(C)C)CC1)c1ccc(C#N)cc1 (stereo unspecified)
IC50 [1]: 44 nM

Cn1cncc1C(OCc1ccc(C#N)c(-c2cccc(Cl)c2)n1)c1ccc(C#N)cc1 (stereo unspecified)
IC50 [1]: 12 nM

CC(=O)N1CCN(c2nc(COC(c3ccc(C#N)cc3)c3cncn3C)c(-c3cccc(Cl)c3)cc2C#N)CC1 (stereo unspecified)
IC50 [1]: 0.98 nM
EC50 (NIH3T3): 0.4 nM

Cn1cncc1C(OCc1ccc(C#N)nc1-c1ccc2c(c1)OC(F)(F)O2)c1ccc(C#N)cc1 (stereo unspecified)
half-life [2]: 7.6 h
AUC [3]: 2800 ng·h/mL
Tmax [4]: 1 h
Cmax [5]: 260 ng/mL
IC50 [1]: 0.18 nM
EC50 (NIH3T3): 1.2 nM

Cn1cncc1C(OCc1ncc(C#N)cc1-c1cccc(Cl)c1)c1ccc(C#N)cc1 (stereo unspecified)
IC50 [1]: 0.92 nM
EC50 (NIH3T3): 10 nM

CN1CCN(c2nc(COC(c3ccc(C#N)cc3)c3cncn3C)c(-c3cccc(Cl)c3)cc2C#N)CC1 (stereo unspecified)
IC50 [1]: 0.57 nM
EC50 (NIH3T3): 2 nM

Cn1cncc1C(OCc1ccc(C#N)cc1)c1ccc(C#N)c(-c2cccc3ccccc23)c1 (stereo unspecified)
IC50 [6]: 0.2 nM
EC50 (NIH3T3): 110 nM
IC50 [7]: 18 nM

COc1cccc(-c2cc(C#N)ccc2COC(c2ccc(C#N)nc2)c2cncn2C)c1 (stereo unspecified)
IC50 [1]: 0.88 nM
EC50 (NIH3T3): 20 nM

Cn1cncc1C(OCc1ccc(C#N)c(-c2ccc(Cl)cc2)n1)c1ccc(C#N)cc1 (stereo unspecified)
IC50 [1]: 25 nM

Cn1cncc1C(OCc1cnc(C#N)cc1-c1cccc(Cl)c1)c1ccc(C#N)cc1 (stereo unspecified)
IC50 [1]: 1.8 nM
EC50 (NIH3T3): 17 nM

Cn1cncc1C(OCc1ccc(C#N)nc1-c1ccc(OC(F)(F)F)cc1)c1ccc(C#N)cc1 (stereo unspecified)
IC50 [1]: 0.51 nM
EC50 (NIH3T3): 4 nM

Cn1cncc1C(OCc1ccc(C#N)cc1-c1cccc2ccccc12)c1ccc(C#N)nc1 (stereo unspecified)
IC50 [1]: 1.7 nM
EC50 (NIH3T3): 46 nM

Cn1cncc1C(OCc1nc(N2CCC(O)CC2)c(C#N)cc1-c1cccc(Cl)c1)c1ccc(C#N)cc1 (stereo unspecified)
IC50 [1]: 0.51 nM
EC50 (NIH3T3): 3.6 nM

Cn1cncc1C(OCc1ccc(C#N)cc1-c1ccc2c(c1)OCO2)c1ccc(C#N)nc1 (stereo unspecified)
IC50 [1]: 0.84 nM
EC50 (NIH3T3): 3.5 nM

Cn1cncc1C(OCc1nc(N2CCOCC2)c(C#N)cc1-c1cccc(Cl)c1)c1ccc(C#N)cc1 (stereo unspecified)
IC50 [1]: 0.25 nM
EC50 (NIH3T3): 1.2 nM

CN1CCN(c2nc(COC(c3ccc(C#N)cc3)c3cncn3C)ccc2C#N)CC1 (stereo unspecified)
IC50 [1]: 58 nM

Cn1cncc1C(OCc1ccc(C#N)nc1N1CCOCC1)c1ccc(C#N)cc1 (stereo unspecified)
IC50 [1]: 1.9 nM
EC50 (NIH3T3): 88 nM

Cn1cncc1C(OCc1ccc(C#N)nc1-c1cccc(Cl)c1)c1ccc(C#N)cc1 (stereo unspecified)
IC50 [1]: 0.82 nM
EC50 (NIH3T3): 1.8 nM

Cn1cncc1C(OCc1nc(N2CCN(C(=O)OC(C)(C)C)CC2)c(C#N)cc1-c1cccc(Cl)c1)c1ccc(C#N)cc1 (stereo unspecified)
EC50 (NIH3T3): 4.5 nM

Cn1cncc1C(OCc1ccc(C#N)nc1-c1cc(Cl)cc(Cl)c1)c1ccc(C#N)cc1 (stereo unspecified)
IC50 [1]: 0.45 nM
EC50 (NIH3T3): 6 nM

Cn1cncc1C(OCc1ccc(C#N)cc1-c1ccc(F)c(Cl)c1)c1ccc(C#N)nc1 (stereo unspecified)
IC50 [1]: 1 nM
EC50 (NIH3T3): 46 nM

Cn1cncc1C(OCc1ccc(C#N)nc1-c1cccc(OC(F)(F)F)c1)c1ccc(C#N)cc1 (stereo unspecified)
IC50 [1]: 0.18 nM
EC50 (NIH3T3): 2 nM

Cn1cncc1C(OCc1ccc(C#N)cc1-c1cc(F)cc(F)c1)c1ccc(C#N)nc1 (stereo unspecified)
IC50 [1]: 2 nM
EC50 (NIH3T3): 25 nM

Cn1cncc1C(OCc1ccc(C#N)nc1-c1ccccc1)c1ccc(C#N)cc1 (stereo unspecified)
IC50 [1]: 3.9 nM
EC50 (NIH3T3): 19 nM

Cn1cncc1C(OCc1nc(Cl)c(C#N)cc1-c1cccc(Cl)c1)c1ccc(C#N)cc1 (stereo unspecified)
EC50 (NIH3T3): 29 nM

Cn1cncc1C(OCc1ccc(C#N)cc1-c1cccc(Cl)c1)c1ccc(C#N)nc1 (stereo unspecified)
IC50 [1]: 0.75 nM
EC50 (NIH3T3): 2.1 nM

Cn1cncc1C(OCc1ccc(C#N)cc1-c1cccc(OC(F)(F)F)c1)c1ccc(C#N)nc1 (stereo unspecified)
IC50 [1]: 0.4 nM
EC50 (NIH3T3): 24 nM

Cn1cncc1C(OCc1ccc(C#N)nc1-c1ccc2ccccc2c1)c1ccc(C#N)cc1 (stereo unspecified)
IC50 [1]: 0.16 nM
EC50 (NIH3T3): 7.4 nM

Cn1cncc1C(OCc1ccc(C#N)cc1)c1ccc(C#N)c(-c2cccc3cccnc23)c1 (stereo unspecified)
bioavailability [8]: 92%
IC50 [1]: 2 nM
EC50 (NIH3T3): 3.7 nM
bioavailability (in vivo): 53%

Cn1cncc1C(OCc1ccc(C#N)nc1-c1cc(F)cc(F)c1)c1ccc(C#N)cc1 (stereo unspecified)
IC50 [1]: 0.71 nM
EC50 (NIH3T3): 2.2 nM

Cn1cncc1C(OCc1nc(N2CCC(C(N)=O)CC2)c(C#N)cc1-c1cccc(Cl)c1)c1ccc(C#N)cc1 (stereo unspecified)
IC50 [1]: 0.73 nM
EC50 (NIH3T3): 1.5 nM
